Here are results for 1 compound from patent US20180200279A1, “INHIBITION OF HSV-1-ASSOCIATED CORNEAL NEOVASCULARIZATION USING INHIBITORS OF CYCLIN-DEPENDENT KINASE 9” (XAVIER UNIVERSITY OF LOUISIANA, priority 2014, published 2018).

For experiment [1], the system named is HUVEC. The experiment can be described thus: Global transcription, BrU incorporation into RNA by flow cytometry. The experiment is classed as cell-based, human. The following applies: serum-starved, PMA-treated HUVEC. (In general: Flow cytometry measures light scatter and fluorescence of single cells or particles in a stream.)
Procedure: Vein endothelial cells (VEC) were activated with phorbol myristate acetate (PMA) and incubated with membrane-permeable 5-bromouridine (BrU) that incorporates into RNA transcribed during the incubation period. A commercially available antibody against 5-bromo-deoxy-uridine was then used to quantify BrU-containing RNA. Cells were analyzed by immunofluorescence staining (not shown) and by flow cytometry for the presence of incorporated BrU to quantify the level of global transcription. […] Additional controls include no antibody and no BrU.
To determine whether FP blocked transcription globally at concentrations at which it reduces angiogenesis in vitro, HUVEC were activated with phorbol myristate acetate (PMA) and incubated with membrane-permeable 5-bromouridine (BrU) that incorporates into RNA transcribed during the incubation period. A commercially available antibody against 5-bromo-deoxy-uridine was then used to quantify BrU-containing RNA. Cells were analyzed by immunofluorescence staining (not shown) and by flow cytometry for the presence of incorporated BrU to quantify the level of global transcription.
Additional controls include no antibody (-Ab) and no BrU (-BrU) (FIG. 5A).
The test system of another experiment is HSV-1. The experiment can be described thus: In vitro viral inhibition (plaque) assay in CV-1 cells. The experiment is classed as cell-based. Here is the method: Numbers of plaque-forming units (PFU) were determined in a standard plaque assay procedure using CV-1 cells.
The HSV-1 strain employed was 17 syn+. Before inoculation, numbers of plaque-forming units (PFU) were determined in a standard plaque assay procedure using CV-1 cells. Pooled primary human umbilical vein endothelial cells (HUVEC) were obtained from Lonza (Basel, Switzerland) and were cultured in Medium 199 (Life Technologies, Carlsbad, Calif.) supplemented with 20% heat-inactivated FBS, penicillin G (100 U/ml), streptomycin ([…]), 2 mM L-glutamine and 1:100 endothelial cell growth supplement (ECGS, BD Biosciences, Bedford, Mass.) on tissue culture plates coated with 0.2% gelatin up to passage 6. Cells were sub-passaged or harvested when they reached ˜80% confluence. For periods of serum-deprivation, HUVEC were incubated for 4 or 16 hours in serum-starvation medium (SSM) containing Medium 199 without phenol red or ECGS but containing 0.5% FBS unless otherwise indicated. In vitro viral inhibition assays with CV-1 cells were performed as previously described (Gong E Y. Methods for screening and profiling inhibitors of herpes simplex viruses. Methods Mol Biol. 1030:303-313. 2013).

For experiment [2], the system named is HUVEC. The experiment can be described thus: Endothelial cell Matrigel transwell invasion assay. The format is cell-based, human. The following applies: 25 ng/mL VEGF and bFGF. As to the method:
After 12-16 hours, tubules were counted at low magnification and percentage of inhibition was expressed using VEGF control wells as 100%.
Migration/invasion assays were performed using 24-well, 8-μm pore size BD Biocoat Matrigel migration chambers according to the manufacturer's instructions (BD Biosciences, San Jose, Calif.). […] Cells were allowed to migrate for 16 hours at 37° C. Following incubation, cotton swabs were used to remove the cells on the top surface of the membrane, and cells on the bottom side of the membrane were fixed with 4% formaldehyde for 30 min, washed 3-5 times with PBS, and then stained with 10 μM Calcein AM (migration) or 10 μM Celltracker green-labeled (invasion). Migrating or invading cells from three repeats in two independent experiments were then counted using an inverted microscope. Data are expressed as mean percent migration and mean percent invading cells compared with untreated cells±SEM.
In addition to migration, new blood vessel formation requires that endothelial cells invade through extracellular matrix (ECM) surrounding the existing vasculature. Inhibition of invasion therefore inhibits angiogenesis. […] Celltracker green-labeled HUVEC that successfully degraded the Matrigel and crossed into the lower chamber containing 25 ng/mL VEGF and bFGF in the presence or absence of FP were counted and expressed as a percent of untreated control cells (FIG. 2B).

Experiment [3] deals with HSV-1 17syn+ induced corneal neovascularization. The experiment can be described thus: HSV-1 corneal neovascularization mouse model, slit-lamp examination score. The format is in vivo, Balb/c mice. The following applies: day 25 post infection; drops 4 times daily for 14 days; 1% TFT, 0.01% flavopiridol, 0.1% DRB; n=10. Here is the method:
Corneal neovascularization was determined in a masked fashion by slit lamp analysis on days 2, 4, 7, 9, 11, 14, 18, and 25 post-infection (PI) with 5×10^5 PFU/eye of HSV-1 17syn+ using the formula A=(C×0.4×L×n)/2 where C=clock hours of neovascularization; 30° arc is 1 (360° circle with a total of 12); L is the length of the longest neovessel, and A is the area of neovascularization.
All experimental procedures were performed in accordance with the ARVO Resolution for the Use of Animals in Ophthalmic and Vision Research and were approved by the Xavier University Animal Care and Use Committee. Female 20 g Balb/c mice were obtained from Charles River Laboratories. Mice were allowed to equilibrate to their surroundings for 2 weeks and then were anesthetized by intramuscular administration of xylazine (6.6 mg/kg of body weight) and ketamine (100 mg/kg of body weight). The corneas were mildly scarified in a 2×2 cross-hatch pattern and each cornea was inoculated with 5×10^5 PFU of strain HSV 17syn+. […] Average neovascularization/eye was scored using the formula A=(C×0.4×L×π)/2 where C=clock hours of neovascularization; 30° arc is 1 (360° circle with a total of 12); L is the length of the longest neovessel, and A is the area of neovascularization. Students scored (by eye) the animals on the days indicated in a masked fashion using the slit-lamp, and images representative of each group were taken. Clinical scores based on epiphora, inflammation and discharge were calculated where 0=no manifestations, +1=slight manifestations, +2=moderate manifestations, and +3=severe manifestations. […] Ex ovo chick embryo chorioallantoic membrane collagen angiogenesis assays were performed using methods as previously described (Deryugina E I and Quigley J P. Chapter 2. Chick embryo chorioallantoic membrane models to quantify angiogenesis induced by inflammatory and tumor cells or purified effector molecules. Methods Enzymol. 444:21-41. 2008). […]
This was assessed with the dose and frequency that was used in the chemotherapeutic study of HSV-1 corneal neovascularization. […]

By IC50 is commonly meant the midpoint of a concentration-inhibition curve. For the compound `CN1CC[C@H](c2c(O)cc(O)c3c(=O)cc(-c4ccccc4Cl)oc23)[C@H](O)C1` [flavopiridol], the “BrU incorporation into RNA (total cellular transcription)” value in the experiment with HUVEC [1] (50 nM-300 nM FP) is on record as “only slightly reduced”; with HUVEC [1] (600 nM-1 μM FP), “significantly (p<0.05 compared with untreated cells) reduced BrU incorporation into RNA”. For the same compound, the “concentration at which HSV-1 replication was significantly inhibited” value in the experiment on HSV-1 turned out to be 250 nM. The IC50 with HSV-1 (Human alphaherpesvirus 1, read-out: average IC50 of HSV-1 replication) came out at 100 nM. Moreover, the “invading cells as percent of untreated control” value in the experiment with HUVEC [2] (50 nM flavopiridol) is 67.08%±6.50; in the experiment on HUVEC [2] (100 nM flavopiridol), 59.74%±6.98; in the experiment on HUVEC [2] (200 nM flavopiridol), 32.64%±8.58. Moreover, the “slit-lamp examination (SLE) score of corneal neovascularization” value in experiment [3] turned out to be 0.039±0.176.
